Measured values taken from publication PMC8833476, “Short-Term Effects of Temperature and Thyrotropin-Releasing Hormone Stimulation on Adrenocorticotropin Stability in Horses” (Animals : an Open Access Journal from MDPI, 2022).

Assays:
[1] = human blood samples at room temperature; cited from earlier work
[2] = room temperature (21 °C), analyzed prior to 8 h; mostly PPID-negative horses; cited from earlier work
Source text: In contrast, our study found t ...

[3] = Short-term stability of immunoreactive ACTH in whole blood stored 1 h at 4, 20, 30, 40 or 70 °C; type: in vitro ADME, horse; conditions: for Mean change of immunoreactive ACTH concentration after 1 h: whole blood 1 h at 20 °C vs 4 °C; for ACTH concentration as percentage of the reference sample (4 °C = 100%), range over horses: equine EDTA whole blood
Method: For horses that underwent TRH stimulation, blood was collected 30 min after receiving 1 mg of TRH intravenously (Sigma-Aldrich Pty Ltd. (subsidiary of Merck), North Ryde BC, New South Wales, Australia). Blood was sampled between 7 and 8 am. All procedures were approved by the University of Queensland Animal Ethics Committee, approval number SVS/474/17, 22nd December 2017.
Samples were taken to the laboratory within 1 h of collection. They were then stored as whole blood either in a temperature-monitored refrigerator (4 °C), in a temperature-controlled room (20 °C), or in incubators (30, 40, or 70 °C) for 1 h. Samples were then centrifuged at 3500× g at 4 °C for 10 min. The plasma was separated and analyzed within 2 h of collection from the horse. […] Due to the necessity of analyzing all samples within a 2-h window from collection, and limitations on the speed of the analyzer, the 15 horses were sampled over a 4-day period. The samples from each horse were run using the same kit.
The reference sample was defined as the sample stored at 4 °C.

[4] = delaying centrifugation of horse blood by 1 h; cited from earlier work

Row | Substance | Time at room temperature prior to centrifugation at which the measured ACTH concentration is altered [1] | Difference between samples kept at room temperature and at 4 °C [2] | Mean change of immunoreactive ACTH concentration after 1 h ([3]; PPID horses) | Bland–Altman mean bias of ACTH concentration, 4 versus 20 °C ([3]; equine EDTA whole blood stored 1 h at 20 °C vs 4 °C reference, then centrifuged, plasma immunoreactive ACTH by Immulite 1000 chemiluminescent assay, 15 horses) | Bland–Altman mean bias of ACTH concentration, 4 versus 30 °C ([3]; equine EDTA whole blood stored 1 h at 30 °C vs 4 °C reference, Immulite 1000 chemiluminescent assay, 15 horses) | Bland–Altman mean bias of ACTH concentration, 4 versus 40 °C ([3]; equine EDTA whole blood stored 1 h at 40 °C vs 4 °C reference, Immulite 1000 chemiluminescent assay, 15 horses) | Bland–Altman mean bias of ACTH concentration, 4 versus 70 °C ([3]; equine EDTA whole blood stored 1 h at 70 °C vs 4 °C reference, Immulite 1000 chemiluminescent assay, only 9 of 15 samples analysable) | ACTH concentration as percentage of the reference sample (4 °C = 100%), range over horses ([3]; 1 h at 20 °C, Immulite 1000 chemiluminescent assay, 15 horses (PPID and non-PPID, basal and post-TRH), not significant) | ACTH concentration as percentage of the reference sample (4 °C = 100%), range over horses ([3]; 1 h at 30 °C, Immulite 1000, 15 horses, not significant) | ACTH concentration as percentage of the reference sample (4 °C = 100%), range over horses ([3]; 1 h at 40 °C, Immulite 1000, 15 horses, not significant) | ACTH concentration as percentage of the reference sample (4 °C = 100%), range over horses ([3]; 1 h at 70 °C, Immulite 1000, 9 of 15 samples analysable (solidification), p = 0.001) | Mean change of immunoreactive ACTH concentration after 1 h ([3]; non-PPID horses) | Measured ACTH concentration, reference sample ([3]; one non-PPID horse, post-TRH stimulation, whole blood 1 h at 4 °C, single horse) | Measured ACTH concentration after storage ([3]; one non-PPID horse, post-TRH stimulation, whole blood 1 h at 20 °C, single horse) | Measured ACTH concentration after storage ([3]; one non-PPID horse, post-TRH stimulation, whole blood 1 h at 40 °C, single horse) | Deviation of measured ACTH concentration above the same sample stored at 4 °C ([3]; whole blood 1 h at 20 °C, maximum over horses) | Mean reduction in the measured ACTH concentration [4]
1 | human ACTH: endogenous human ACTH, reported as highly unstable due to proteolytic degradation (SYSMEHFRWGKPVGKKRRPVKVYPNGAEDESAEAFPLEF; Corticotropin; UniProt P01189 138-176, looked up) | ≥ 4 h |  |  |  |  |  |  |  |  |  |  |  |  |  |  |  | 
2 | adrenocorticotropic hormone [ACTH] |  | no difference | 5% | -2.8 pg/mL | -1.38 pg/mL | -0.16 pg/mL | 10.1 pg/mL | 84.3 to 122.1% | 89.4 to 115.6% | 86.5 to 116.3% | 72 to 94.4% | 12% | 60.9 pg/mL | 69.1 pg/mL | 70.8 pg/mL | up to 22% | 11.6 pg/mL
